Experimental findings from patent publication US20230255974A1, “USE OF THYROMIMETICS FOR THE TREATMENT OF CANCER” (THE UNIVERSITY OF VERMONT, priority 2020, published 2023) are described below.

The subject of assay [1] is MDA-MB-468 cells (EV, TRβ). The following applies: MDA-MB-468 in the presence of TRβ, 10 nM, 3 days. On the procedure: Triple negative breast cancer were examined next. […] TNBC cancers and other advanced solid tumors have lower endogenous levels of expression of TRβ. […] Cell migration was measured by scratch assay (FIG. 28). […] Data are mean+/−SD; *indicates p<0.05 determined by t-test.

For assay [2], the system named is SW1736 cells (SW-EV, SW-TRβ). The experiment in a line: RNA-seq gene expression in SW-EV and SW-TRβ. Type of assay: cell-based, human. On the procedure: RNA-seq Library Construction and Quality Control. 80% confluent monolayers of SW-EV and SW-TRβ cells were hormone starved for 24 hours in phenol red free RPMI with charcoal-stripped fetal bovine serum. 10^−8M T3 was added and incubated for 24 hours prior to sample collection. Total RNA was extracted and purified using RNeasy Plus Kit (Qiagen) according to manufacturer's protocol. Purity of the total RNA samples was assessed via BioAnalyzer (Agilent) and samples with a RIN score >7 were used for library construction. rRNA was depleted using 1 μg of total RNA with the RiboErase kit (KAPA Biosystems). Strand-specific Illumina cDNA libraries were prepared using the KAPA Stranded RNA-Seq library preparation kit with 10 cycles of PCR (KAPA Biosystems). Library quality was assessed by BioAnalyzer (Agilent) to ensure an average library size of 300 bp and the absence of excess adaptors in each sample. RNA-Seq libraries were pooled and sequenced on the Illumina HiSeq 1500 with 50 bp single-end reads. Quality scores across sequenced reads were assessed using FASTQC. […] For alignment and transcript assembly, the sequencing reads were mapped to hg38 using STAR. Sorted reads were counted using HTSeq and differential expression analysis was performed using DESeq2.

Assay [3] concerns interferon/JAK1/STAT1 pathway. The experiment in a line: Interferon/JAK1/STAT1 pathway expression (immunoblot, qPCR). Type of assay: cell-based, human. The following applies: SW-TRβ. On the procedure: Immunoblot Analysis. Proteins were isolated from whole cells in lysis buffer (20 mM Tris-HCl [pH 8], 137 mM NaCl, 10% glycerol, 1% Triton X-100, and 2 mM EDTA) containing Protease Inhibitor Cocktail 78410 (Thermo Scientific). Proteins were resolved by polyacrylamide gel electrophoresis on 10% sodium dodecyl sulfate gels EC60752 (Life Technologies) and immobilized onto nitrocellulose membranes (GE Healthcare) by electroblot (Bio-Rad Laboratories). Specific proteins were detected by immunoblotting with the indicated antibodies (Table 4); immunoreactive proteins were detected by enhanced chemiluminescence (Thermo Scientific) on a ChemiDoc XRS+ (Bio-Rad Laboratories). RNA Extraction and Quantitative Real-Time PCR (qRT-PCR). Total RNA was extracted using RNeasy Plus Kit (Qiagen) according to manufacturer's protocol. cDNA was then generated using the 5×RT Mastermix (ABM). Gene expression to validate RNASeq analysis was quantified by qRT-PCR using 2×SuperGreen Mastermix (ABM) on a QuantStudio 3 real-time PCR system (Applied Biosystems). Fold change in gene expression compared to endogenous controls was calculated using the ddCT method.

Assay [4] relates to SW1736 cells (SW-EV, SW-TRβ). Kind of assay: Growth assay (live cell imaging), T3. Type of assay: cell-based, human. On the procedure: Culture of thyroid cell lines. Anaplastic thyroid cancer cell lines (SW1736 and KTC-2) were cultured in RPMI 1640 growth media with L-glutamine (300 mg/L), sodium pyruvate and nonessential amino acids (1%) (Cellgro/Mediatech), supplemented with 10% fetal bovine serum (Life Technologies) and penicillin-streptomycin ([…]) (Cellgro/Mediatech) at 37° C., 5% CO2, and 100% humidity. The cell lines were generously provided by Dr. John Copland III (Mayo Clinic). Lentivirally modified SW1736 cells were generated as recently described (Gillis et al., “Thyroid Hormone Receptor β Suppression of RUNX2 is Mediated by Brahma Related Gene 1 Dependent Chromatin Remodeling.” Endocrinol. 159(6):2484-94 (2018), which is hereby incorporated by reference in its entirety) with either an empty vector (SW-EV) or to overexpress TRβ (SW-TRβ). SW-EV and SW-TRβ were grown in the above conditions with the addition of 1 μg/ml puromycin (Gold Bio). All cells were authenticated by the Vermont Integrative Genomics Resource at the University of Vermont using short tandem repeat profiles and Promega GenePrint10 System (SW1736, May 2019; KTC-2, October 2019).
Growth Assays. Cell growth was measured either through live cell imaging or by cell counting at discrete points. Live cell imaging was used to assess the growth kinetics of SW-EV and SW-TRβ. To perform live cell imaging, 5000 cells were plated per well in 24 well plates. After 24 hours in phenol red free, charcoal stripped media, media was supplemented with either 10^−8 M T3 or equivolume vehicle (NaOH). Every two hours cells were imaged with a Lionheart automated microscope (BioTek) and quantified with Gen5 software (BioTek). The cells entered the log phase of growth at approximately 48 hours, and the portion of the curve following this point was used to calculate the doubling time of the cells. In order to measure growth manually, 25,000 cells were plated per well in a six well plate. […] Every 24 hours cell counts were assessed by hemocytometer.

In assay [5] the test system is SW1736 cells (SW-EV, SW-TRβ). The experiment in a line: Tumorsphere assay, T3. Type of assay: cell-based, human. To be noted: 10^−8 M T3, seven days.
The next assay concerns NthyOri thyroid cells. To be noted: normal-like NthyOri thyroid cells.
Assay [6] concerns SW1736 cells (SW-EV, SW-TRβ). The experiment in a line: Soft agar colony formation assay. Type of assay: cell-based, human. The following applies: 10^−8 M T3, 14 days. On the procedure: Soft Agar Colony Formation Assay. Soft agar colony forming assays were used to assess anchorage-independent growth. A layer 0.50% agar in thyroid media (as described) was solidified in 6-well cell culture plates. SW-EV or SW-TRβ cells were plated in a second layer of 0.25% agar in thyroid media. 200 uL of thyroid media was maintained at the top of each well to prevent the agar from drying. […] Colonies were allowed to grow for 14 days. Live SW-EV and SW-TRβ colonies were detected via GFP expression using a ChemiDoc XRS+ (Bio-Rad Laboratories). Colonies were then counted with ImageJ using the Colony Counter plugin.

`N[C@@H](Cc1cc(I)c(Oc2ccc(O)c(I)c2)c(I)c1)C(=O)O` [T3, (2S)-2-amino-3-[4-(4-hydroxy-3-iodophenoxy)-3,5-diiodophenyl]propanoic acid]: the “cell migration and growth” value in assay [1] was “reduced cell migration and growth”. Besides, in assay [2] (SW1736-TRβ, T3 treated), the “expression of epithelial marker CDH1” value is recorded as “increased expression” and the “expression of mesenchymal marker VIM” value was “decreased”. Further, in assay [2] (SW-EV and SW-TRβ, T3), the “expression of cluster 1 genes in the ILK signaling IPA pathway” value was “repressed”. In assay [2] (SW-TRβ, T3 treated), the thyroid differentiation markers entry is given as “significantly induced” and the “thyroid differentiation score (TDS)” value is “significantly higher TDS”. Besides, the “expression of thyroid-specific cancer stem cell genes ALDH, POU5F1, CD44, FUT4, PROM1” value in assay [2] (TRβ overexpression and T3, RNA-seq) is listed as “significantly reduced expression of the thyroid-specific cancer stem cell genes”. For the same compound, in assay [3] (T3), the “expression of IRF1 target genes APOL6 and TNFSF10 (qPCR)” value is “Induction of IRF1 target genes APOL6 and TNFSF10”; the “expression of STAT1 target genes IRF1 and TAP1 (qPCR)” value was “increased the expression of STAT1 target genes IRF1 and TAP1”. Also, the “expression of JAK1 and STAT1” value in assay [3] (T3 treatment) is “significantly increased”. In addition, the growth rate result in assay [4] (SW-EV, 10^−8 M T3 vs vehicle) is “modestly decreased the growth rate”. For the same compound, the cellular growth result in assay [4] (SW-TRβ (TRβ overexpression), 10^−8 M T3) was “profoundly reduced cellular growth”. The doubling time entry in assay [4] (SW-TRβ, T3 treated) is given as “greatest doubling time”. Besides, the “number of tumorspheres formed” value in assay [5] (SW-EV) is “no effect on the number of tumorspheres”. The tumorsphere growth result in assay [5] (SW-TRβ) is recorded as “blocked almost all tumorsphere growth”. Also, the “cell phenotypic or signaling changes” value in the assay with NthyOri thyroid cells is “No cell phenotypic changes or signaling changes were observed”. Further, in assay [6] (SW-EV), the anchorage-independent colony growth entry was “reduced anchorage-independent colony growth”. Also, the anchorage-independent colony growth result in assay [6] (SW-TRβ) is on record as “nearly ablated colony growth”.
